US20120020876A1, “HEDGEHOG PATHWAY INHIBITORS” (priority 2009, published 2012)

Assays:
[1] = Gd-DTPA delivery by DCE-MRI; format: in vivo, mouse; details: 0.1 mmol/kg Gd-DTPA
Method: Magnetic resonance imaging experiments were carried out on a Varian MRI system (Varian, Inc, Palo Alto, Calif., USA) equipped with a 9.4T horizontal bore cryo-cooled superconducting magnet of 210 mm bore and a gradient set of strength 40 G/cm, 120 μsec risetime and internal diameter 120 mm. The imaging probe used was a Varian Millipede of 40 mm internal diameter. Mice were anaesthetized with Hypnorm/Hypnovel. Anatomical images were obtained using coronal T2-weighted fast spin-echo (repetition time TR=2000 ms, effective echo time TE=25 ms, echo train length 8 echoes, 512×512 points, field of view 80×80 mm, slice thickness/gap 1.5/0.5 mm, 12-15 slices) with chemical shift-selective fat suppression and respiratory gating. All other images were matched to the slice positions and field of view of the anatomical images. […] DCE-MRI data were analyzed in software custom-written in MATLAB 7.4 (The Mathworks, Inc, Natick, Mass., USA) using the model of Tofts and Kermode to evaluate the pharmacokinetic parameters Ktrans and ve, and additionally calculating the area under the [gadolinium]-time curve over the first 60 seconds post-injection (IAUGC60), as recommended by a panel of experts for vascular-related studies in oncology.

[2] = Vascular labeling and drug diffusion: doxorubicin delivery by confocal microscopy; format: in vivo, mouse; details: in comparison to control tissues and transplanted tumors; i.v. with lectin
Method: To assess the functional vasculature, biotin-conjugated Lycopersicon esculentum lectin (B1175-1 mg, Vector Laboratories) was resuspended in 425 μL PBS and mixed with 75 μL of 1 mg/mL Streptavidin-AlexaFluor 633 (S21375, Molecular Probes) (in sterile PBS). Prior to use, the lectin-avidin mixture was centrifuged 14,000 k on a microfuge for 10 minutes to remove any particulate. Fifteen minutes prior to euthanasia, 100 μl (0.4 mg total) of the conjugated lectin was administered as a slow intravenous infusion over 5 minutes, and the hemodynamics monitored closely to ensure that it was tolerated. For doxorubicin experiments, five minutes prior to euthanasia mice were also infused with a 20 mg/kg doxorubicin solution (D-1515.10 mg, in sterile saline, Sigma) over one minute.
While under terminal anesthesia, mice were perfused with 4% paraformaldehyde in PBS, pH 7.4. Perfused tissues were harvested, fixed overnight in 4% paraformaldehyde in PBS, pH 7.4 and transferred to 70% ethanol. Tissues were embedded in paraffin, sectioned, rehydrated, and counterstained with DAPI. The lectin labeling experiments were reproduced independently in a second laboratory (SRH, KI).
Mice were infused with 30 ml of 4% PFA pH 7.4 using a Harvard Apparatus PhD 2000 syringe pump at a rate of […]. […] Doxorubicin fluorescence was excited with a 488 nm laser, and emission was detected in a range from 520-620 nm. […]

| Compound | Gd-DTPA enhancement within KPC tumors [1] | doxorubicin delivery to KPC pancreatic tumors [2] |
| --- | --- | --- |
| O=C([O-])CN(CCN(CC(=O)[O-])CC(=O)O)CCN(CC(=O)[O-])CC(=O)O.[Gd+3] [Gd-DTPA, gadolinium-diethyltriaminepentaacetic acid] | little or no enhancement within the tumor body | – |
| COc1cccc2c1C(=O)c1c(O)c3c(c(O)c1C2=O)C[C@@](O)(C(=O)CO)C[C@@H]3O[C@H]1C[C@H](N)[C@H](O)[C@H](C)O1 [doxorubicin] | – | marked decrease in doxorubicin delivery |
